{"source": "patent US12428388B2", "about": "“Nonionic polyether surfactants” (Cepheid, priority 2020, dated 2025)", "key": {"[1]": {"test": "Stability in 2M NaOH (visual observation)", "format": "physicochemical", "settings": "1% surfactant in 2M NaOH, room temperature", "experimental": "In the following experiments, the properties of exemplary reduced polysorbates were compared with the starting materials purchased from Sigma: Tween 20® BioXtra, Cat No P7949 and Tween 80® BioXtra, Cat No P8074\nThe following solutions are prepared in two vials: (A) 1% Tween 20® in 2M NaOH; (B) 1% Compound 2 in 2M NaOH. Both solutions were left at room temperature and the changes were observed visually.\nSimilarly, hydrolytic stability of (A) Tween 80® and (B) Compound 2 were compared."}, "[2]": {"test_system": "Esterase from porcine liver", "test": "Resistance to Esterase Hydrolysis", "format": "in vitro ADME", "settings": "1% surfactant in 10 mM tris-HCl (pH 8.0), CaCl2, Esterase from porcine liver (Sigma E2884), room temperature", "experimental": "(§1) Stability of surfactants in the presence of hydrolyzing enzymes was tested according to a simplified literature procedure (Francisco J. Plou, Manuel Ferrer, Oscar M. Nuero, Maria V. Calvo, Miguel Alcalde, Fuensanta Reyes, Antonio Ballesteros. Analysis of Tween 80 as an esterase/lipase substrate for lipolytic activity assay. Biotechnology Techniques, Vol 12, No 3, March 1998, pp. 183-186.)\nB2. Resistance to Esterase Hydrolysis\nThe following solutions were prepared in two vials: (A) to 20 mL of 1% Tween 20® in 10 mM tris-HCl (pH 8.0) is added 1 mL of 5% CaCl2) followed by 40 μL of 100 UN/mL solution of Esterase from porcine liver (Sigma E2884) in 10 μM tris-HCl (pH 8.0); (B) to 20 mL of 1% Compound 1 in 10 mM tris-HCl (pH 8.0) is added 1 mL of 5% CaCl2 followed by 40 μL of 100 UN/mL solution of Esterase from porcine liver in 10 μM tris-HCl (pH 8.0). Both solutions were left at room temperature and changes were observed visually."}, "[3]": {"target": "T1, Lipase from porcine pancreas (Sus scrofa, UniProt P00591)", "T1 construct": "Lipase from porcine pancreas (Sigma L3126); purchased Sigma L3126; host or cells: porcine pancreas (tissue-derived)", "T1 sequence (P00591 1-450)": "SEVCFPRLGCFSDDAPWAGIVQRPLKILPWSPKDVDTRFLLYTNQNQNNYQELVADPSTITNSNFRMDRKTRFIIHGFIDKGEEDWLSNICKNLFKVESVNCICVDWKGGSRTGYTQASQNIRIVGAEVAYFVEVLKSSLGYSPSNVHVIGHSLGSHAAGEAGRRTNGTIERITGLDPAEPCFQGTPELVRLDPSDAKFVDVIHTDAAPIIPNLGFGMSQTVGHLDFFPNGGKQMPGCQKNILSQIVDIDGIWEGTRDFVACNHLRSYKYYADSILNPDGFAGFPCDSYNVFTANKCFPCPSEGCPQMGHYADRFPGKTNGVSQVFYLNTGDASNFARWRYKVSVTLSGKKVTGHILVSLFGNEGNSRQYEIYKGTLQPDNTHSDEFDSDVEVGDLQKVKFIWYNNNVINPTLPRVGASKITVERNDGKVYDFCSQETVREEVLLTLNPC", "test": "Resistance to Lipase Hydrolysis", "format": "in vitro ADME", "settings": "1% surfactant in 10 mM tris-HCl (pH 8.0), CaCl2, Lipase from porcine pancreas (Sigma L3126), room temperature", "experimental": "as §1\nB1. Resistance to Lipase Hydrolysis\nThe following solutions are prepared in two vials: (A) to 20 mL of 1% Tween 20® in 10 mM tris-HCl (pH 8.0) is added 1 mL of 5% CaCl2) followed by 2 mL of 2 mg/mL solution of Lipase from porcine pancreas (Sigma L3126) in 10 μM tris-HCl (pH 8.0); (B) to 20 mL of 1% Compound 1 in 10 mM tris-HCl (pH 8.0) is added 1 mL of 5% CaCl2) followed by 2 mL of 2 mg/mL solution of Lipase from porcine pancreas (Sigma L3126) in 10 μM tris-HCl (pH 8.0). Both solutions were left at room temperature, and changes were observed visually."}}}
{"substance": "polyoxyethylene sorbitan monolaurate [Tween 20®]", "values": [{"measurement": "hydrolytic stability in 2M NaOH, changes of the solution observed visually", "setting": "[1]", "value": "became non-transparent within one hour and turned into stiff gel the next day"}, {"measurement": "stability to esterase hydrolysis, changes of the solution observed visually", "setting": "[2]", "value": "became cloudy within one hour and became non-transparent the next day"}, {"measurement": "stability to lipase hydrolysis, changes of the solution observed visually", "setting": "[3]", "value": "became cloudy within one hour and became non-transparent the next day"}]}
{"substance": "polyoxyethylene sorbitan monooleate [Tween 80®]", "values": [{"measurement": "hydrolytic stability in 2M NaOH, changes of the solution observed visually", "setting": "[1]", "value": "became cloudy within one hour and turned into a stiff gel the next day"}]}
